The record followed here is ChEMBL document CHEMBL1201862, “PubChem BioAssay data set” (2004).

For orientation: EC50 means the concentration needed to bring the measured effect to its halfway point. The IC50 is the concentration that inhibits the measured activity by half. As usually defined, the AC50 is the concentration at which the activity in the assay is half-maximal.

Data set [1] addresses Voltage-dependent T-type calcium channel subunit alpha-1H (Homo sapiens, UniProt O95180). The format is functional.
In data set [2] the target is Protein-tyrosine kinase 2-beta (Homo sapiens, UniProt Q14289).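 Note: potency of inhibitors of PYK2 kinase phosphorylation of poly-GT substrate.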
Protein-tyrosine kinase 2-beta, sequence (Q14289 whole entry, the tested form may be a part): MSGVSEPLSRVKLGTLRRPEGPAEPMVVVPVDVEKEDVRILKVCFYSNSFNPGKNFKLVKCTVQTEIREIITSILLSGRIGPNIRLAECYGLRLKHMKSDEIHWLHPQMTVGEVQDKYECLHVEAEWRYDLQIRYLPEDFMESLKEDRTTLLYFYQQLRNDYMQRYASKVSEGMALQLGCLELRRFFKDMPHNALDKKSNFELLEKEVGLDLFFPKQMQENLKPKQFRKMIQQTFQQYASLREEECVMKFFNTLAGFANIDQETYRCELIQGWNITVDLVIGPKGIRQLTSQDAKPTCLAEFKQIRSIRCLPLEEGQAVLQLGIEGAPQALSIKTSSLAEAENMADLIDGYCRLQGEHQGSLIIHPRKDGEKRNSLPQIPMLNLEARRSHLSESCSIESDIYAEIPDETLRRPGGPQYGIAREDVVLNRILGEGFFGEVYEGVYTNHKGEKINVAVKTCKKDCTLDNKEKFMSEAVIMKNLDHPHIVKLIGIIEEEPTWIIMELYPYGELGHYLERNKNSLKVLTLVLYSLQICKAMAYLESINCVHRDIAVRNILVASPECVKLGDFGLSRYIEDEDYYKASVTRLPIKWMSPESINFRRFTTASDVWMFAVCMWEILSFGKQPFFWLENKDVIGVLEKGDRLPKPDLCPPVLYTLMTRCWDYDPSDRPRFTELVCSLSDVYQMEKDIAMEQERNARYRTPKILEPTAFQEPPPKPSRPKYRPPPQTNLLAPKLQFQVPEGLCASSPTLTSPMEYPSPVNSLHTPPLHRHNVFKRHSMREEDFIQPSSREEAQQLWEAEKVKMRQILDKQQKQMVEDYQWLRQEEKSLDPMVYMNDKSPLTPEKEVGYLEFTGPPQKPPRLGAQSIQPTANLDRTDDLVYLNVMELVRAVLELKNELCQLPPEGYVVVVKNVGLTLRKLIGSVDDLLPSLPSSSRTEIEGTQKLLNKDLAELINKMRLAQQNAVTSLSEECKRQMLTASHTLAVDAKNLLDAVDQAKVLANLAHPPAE
In data set [3] the target is T1, Hepatocyte nuclear factor 4-alpha (Homo sapiens, UniProt P41235).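 Note: biochemical luminescence-based dose-response counterscreen measuring inhibition of HNF4 dimerization, run alongside a screen for blockers of ABHD5–perilipin-5 interaction; split luciferase complementation of HNF4 fusion proteins in cell lysate measuring dimerization.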
T1 sequence (P41235 whole entry): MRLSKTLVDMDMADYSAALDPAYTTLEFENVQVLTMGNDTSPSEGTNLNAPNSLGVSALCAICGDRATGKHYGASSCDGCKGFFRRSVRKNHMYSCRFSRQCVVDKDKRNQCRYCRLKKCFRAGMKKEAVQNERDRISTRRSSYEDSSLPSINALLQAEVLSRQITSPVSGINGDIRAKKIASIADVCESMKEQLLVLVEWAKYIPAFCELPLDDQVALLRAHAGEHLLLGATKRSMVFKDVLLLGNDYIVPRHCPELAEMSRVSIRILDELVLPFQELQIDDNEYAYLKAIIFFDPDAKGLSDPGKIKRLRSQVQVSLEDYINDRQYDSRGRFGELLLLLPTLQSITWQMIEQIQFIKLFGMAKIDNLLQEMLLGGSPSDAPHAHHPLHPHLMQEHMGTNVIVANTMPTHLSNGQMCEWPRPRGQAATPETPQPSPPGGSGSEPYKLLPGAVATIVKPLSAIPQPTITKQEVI
The format is functional, cell-based.

Data set [4] in a line: cells. The format is functional, cell-based.
A short description of data set [5]: cells. In kind it is functional, cell-based. The source holds these as a separate data set.
Data set [6] has as its system Streptococcus sp. 'group A'. In words: growth inhibition of control SK(-) GAS strain, dose response, counter-screen for streptokinase expression inhibitor project, luminescence, kanamycin, BacTiterGlo, confirmation (AID 1900). The format is functional, organism-based. (The purpose of a counterscreen is to sort out artefacts and off-target activity.)
The test system of a further data set is Streptococcus. Description: Group A Streptococcus viability loss, dose response, counter-screen for streptokinase expression inhibitor project, luminescence, BacTiterGlo (AID 1915).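 Note: potency for reduction of bacterial viability or growth.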 The format is functional, organism-based.
A further data set concerns INS1. Description: beta cell apoptosis inhibitors, cytokine rescue, dose response, luminescence, retest (AID 449756).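 Note: cell death triggered by IL-1 beta plus TNF-alpha plus IFN-gamma mixture; protective hits raise ATP signal compared with cytokine alone wells.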 The following applies: Rattus norvegicus. The format is functional, cell-based.
Data set [7] can be described thus: cells. The format is functional, cell-based. The source holds these as a separate data set.
Data set [8] has as its target T2, Trace amine-associated receptor 1 (Homo sapiens, UniProt Q96RJ0).
T2 sequence (Q96RJ0 whole entry): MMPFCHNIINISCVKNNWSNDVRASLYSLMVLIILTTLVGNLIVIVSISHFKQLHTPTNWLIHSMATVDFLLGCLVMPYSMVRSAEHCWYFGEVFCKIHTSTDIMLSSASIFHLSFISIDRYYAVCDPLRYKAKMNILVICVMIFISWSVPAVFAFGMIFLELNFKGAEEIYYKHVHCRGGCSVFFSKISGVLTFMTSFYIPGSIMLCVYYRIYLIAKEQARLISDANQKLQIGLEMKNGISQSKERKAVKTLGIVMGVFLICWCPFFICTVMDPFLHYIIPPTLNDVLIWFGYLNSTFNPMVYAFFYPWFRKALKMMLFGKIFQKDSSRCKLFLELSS
In words: Counterscreen for agonists of the human trace amine associated receptor 1 (hTAAR1): Fluorescence-based cell-based high throughput dose response assay to identify hTAAR1 agonist that also desensitize TAAR1 receptor response. The format is functional.

Data set [9] deals with T2, Trace amine-associated receptor 1. Description: Fluorescence-based cell-based high throughput dose response assay to identify agonists of the human trace amine associated receptor 1 (TAAR1). In kind it is functional.
A short description of data set [10]: cells. In kind it is functional, cell-based. The source holds these as a separate data set.
Data set [11] can be described thus: HeLa 2N DNA content increase, dose response, cell-based, IC50 (AID 1117349). In kind it is functional.
Data set [12] in a line: microbe, parasite or virus in culture. The format is functional. The following applies: Mycobacterium tuberculosis.
Data set [13] is described as follows: HeLa 4N DNA content increase, dose response, cell-based, IC50 (AID 1117351). In kind it is functional.
The target of the next data set is Large T antigen (Simian virus 40, UniProt P03070). In kind it is functional, Betapolyomavirus macacae.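 Note: Confirmatory-stage PubChem screen for compounds that inhibit SV40 T antigen.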
Large T antigen, sequence (P03070 whole entry): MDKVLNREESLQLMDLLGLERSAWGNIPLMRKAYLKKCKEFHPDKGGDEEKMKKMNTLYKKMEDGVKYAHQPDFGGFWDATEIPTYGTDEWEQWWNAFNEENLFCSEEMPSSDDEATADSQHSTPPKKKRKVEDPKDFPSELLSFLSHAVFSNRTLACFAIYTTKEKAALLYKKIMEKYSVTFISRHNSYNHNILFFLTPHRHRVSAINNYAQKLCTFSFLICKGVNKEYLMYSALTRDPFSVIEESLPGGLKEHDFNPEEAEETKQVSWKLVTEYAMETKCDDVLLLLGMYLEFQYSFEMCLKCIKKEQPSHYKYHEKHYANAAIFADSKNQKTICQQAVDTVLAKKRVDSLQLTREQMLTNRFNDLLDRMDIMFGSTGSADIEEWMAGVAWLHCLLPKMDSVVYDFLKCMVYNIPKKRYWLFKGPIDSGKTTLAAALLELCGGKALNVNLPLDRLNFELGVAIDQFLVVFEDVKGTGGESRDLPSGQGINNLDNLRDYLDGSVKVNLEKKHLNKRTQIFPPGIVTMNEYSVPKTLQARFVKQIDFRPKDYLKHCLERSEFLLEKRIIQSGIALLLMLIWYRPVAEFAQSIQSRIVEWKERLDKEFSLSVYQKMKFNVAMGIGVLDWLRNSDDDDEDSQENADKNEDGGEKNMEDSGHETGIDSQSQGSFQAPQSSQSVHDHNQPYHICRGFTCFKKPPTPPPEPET
The target in data set [14] is T3, Rac GTPase-activating protein 1 (Homo sapiens, UniProt Q9H0H5).
T3 sequence (Q9H0H5 whole entry): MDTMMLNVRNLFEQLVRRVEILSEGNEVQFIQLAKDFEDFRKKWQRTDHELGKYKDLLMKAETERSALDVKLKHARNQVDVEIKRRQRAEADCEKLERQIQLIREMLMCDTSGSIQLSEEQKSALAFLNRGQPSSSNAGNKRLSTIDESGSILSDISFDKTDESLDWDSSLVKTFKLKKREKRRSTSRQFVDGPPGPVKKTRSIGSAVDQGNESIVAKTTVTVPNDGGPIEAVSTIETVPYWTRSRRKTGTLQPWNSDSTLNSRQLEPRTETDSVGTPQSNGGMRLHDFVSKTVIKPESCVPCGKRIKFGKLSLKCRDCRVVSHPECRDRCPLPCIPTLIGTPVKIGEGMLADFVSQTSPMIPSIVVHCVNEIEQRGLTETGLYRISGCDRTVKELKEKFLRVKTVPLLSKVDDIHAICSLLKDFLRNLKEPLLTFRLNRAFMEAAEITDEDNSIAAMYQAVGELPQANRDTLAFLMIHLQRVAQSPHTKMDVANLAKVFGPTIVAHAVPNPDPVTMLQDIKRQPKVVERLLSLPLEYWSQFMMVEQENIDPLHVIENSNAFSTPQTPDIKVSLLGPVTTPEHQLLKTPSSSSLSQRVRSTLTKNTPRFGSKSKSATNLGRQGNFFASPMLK
Description: MgcRacGAP GTPase-activating activity inhibitors, confirmation, biochemical, ADP Hunter fluorescence, primary and confirmatory (AID 624330). In kind it is functional.

Data set [15] concerns the target Peroxisome proliferator-activated receptor gamma/Nuclear receptor coactivator 1 (Homo sapiens, UniProt P37231). Description: TR-FRET dose response biochemical High Throughput Screening assay for agonists of the steroid receptor coactivator 1 (SRC-1) recruitment by the peroxisome proliferator-activated receptor gamma (PPAR gamma): non-selective agonists. [Related pubchem assays (depositor defined):AID1300, AID1808, AID504735, AID631]. The format is protein assay. (In general: TR-FRET usually uses a lanthanide donor and a delayed reading to cut background.)

Data set [16] addresses Peroxisome proliferator-activated receptor gamma/Nuclear receptor coactivator 3 (Homo sapiens, UniProt P37231). In words: TR-FRET dose response biochemical High Throughput Screening assay for agonists of the steroid receptor coactivator 3 (SRC-3) recruitment by the peroxisome proliferator-activated receptor gamma (PPAR gamma): non-selective agonists. [Related pubchem assays: 1301 (Confirmation screen.), 1048 (Primary screen.)]. The format is functional.

In data set [17] the target is Peroxisome proliferator-activated receptor gamma/Nuclear receptor coactivator 2 (Homo sapiens, UniProt P37231). In words: TR-FRET dose response biochemical High Throughput Screening assay for agonists of the steroid receptor coactivator 2 (SRC-2) recruitment by the peroxisome proliferator-activated receptor gamma (PPAR gamma): non-selective agonists. [Related pubchem assays: 1297, 1032 ]. In kind it is functional.

A short description of data set [18]: cytotoxicity in HEK-293T cells, dose response, cytotoxicity control for BCR NF-kB inhibitor project, luminescence, B-cell screen hits (AID 489021).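 Note: HEK-293T cells carrying an NF-kB luciferase reporter; cells exposed to compound for about 14 hours before viability readout.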 In kind it is functional, cell-based.
For another data set, the target named is Estrogen receptor beta (Homo sapiens, UniProt Q92731).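 Note: recombinant ER-beta bound to coactivator SRC1 peptide in presence of estradiol agonist; inhibitors block coactivator peptide binding and lower the FRET signal.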
Estrogen receptor beta, sequence (Q92731 whole entry): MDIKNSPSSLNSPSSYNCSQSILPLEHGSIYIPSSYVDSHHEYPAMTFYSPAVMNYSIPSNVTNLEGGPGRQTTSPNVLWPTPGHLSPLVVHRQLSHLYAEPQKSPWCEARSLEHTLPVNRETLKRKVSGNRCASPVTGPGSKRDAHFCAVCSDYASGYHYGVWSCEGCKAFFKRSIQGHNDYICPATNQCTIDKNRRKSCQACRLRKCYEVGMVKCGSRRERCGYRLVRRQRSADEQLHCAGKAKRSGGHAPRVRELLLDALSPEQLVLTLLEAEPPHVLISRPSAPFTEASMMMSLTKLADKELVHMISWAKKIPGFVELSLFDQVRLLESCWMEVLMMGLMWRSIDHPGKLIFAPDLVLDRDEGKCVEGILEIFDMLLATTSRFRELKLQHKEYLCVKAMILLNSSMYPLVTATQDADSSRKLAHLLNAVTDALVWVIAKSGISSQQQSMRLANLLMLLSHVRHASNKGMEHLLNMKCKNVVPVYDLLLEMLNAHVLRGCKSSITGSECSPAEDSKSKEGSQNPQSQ
A further data set concerns the target T4, Coagulation factor XII (Homo sapiens, UniProt P00748).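 Note: activated factor XIIa alpha cleaving a fluorogenic AMC peptide substrate; inhibitor potency from loss of enzyme activity.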
T4 sequence (P00748 whole entry): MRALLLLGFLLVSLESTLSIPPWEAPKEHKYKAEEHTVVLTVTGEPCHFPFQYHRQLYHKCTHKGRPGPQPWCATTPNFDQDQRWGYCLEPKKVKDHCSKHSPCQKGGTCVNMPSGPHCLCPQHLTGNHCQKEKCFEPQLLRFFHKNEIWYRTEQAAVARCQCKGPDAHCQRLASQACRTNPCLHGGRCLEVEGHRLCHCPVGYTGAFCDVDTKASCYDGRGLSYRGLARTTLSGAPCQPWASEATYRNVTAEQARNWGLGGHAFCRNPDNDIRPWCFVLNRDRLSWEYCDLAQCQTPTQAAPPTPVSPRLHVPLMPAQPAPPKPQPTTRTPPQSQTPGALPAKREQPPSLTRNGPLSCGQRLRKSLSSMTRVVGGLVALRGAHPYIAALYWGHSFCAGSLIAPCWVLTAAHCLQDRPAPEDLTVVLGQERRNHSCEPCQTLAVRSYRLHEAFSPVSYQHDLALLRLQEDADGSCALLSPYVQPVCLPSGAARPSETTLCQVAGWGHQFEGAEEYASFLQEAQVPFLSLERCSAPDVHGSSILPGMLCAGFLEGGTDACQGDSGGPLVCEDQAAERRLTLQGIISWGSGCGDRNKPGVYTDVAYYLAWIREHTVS
The format is functional.

Data set [19] is described as follows: HEp-2 cell cytotoxicity, dose response, cytotoxicity control for RSV inhibitor project, HTS (AID 2410). In kind it is functional. The following applies: human respiratory syncytial virus.
For another data set, the target named is Cytochrome P450 2C19 (Homo sapiens, UniProt P33261). Description: Cytochrome panel assay with activity outcomes. Panel member name: p450-cyp2c19 Compounds with AC50 equal or less than 10 uM are considered active. The format is functional.
Cytochrome P450 2C19, sequence (P33261 whole entry): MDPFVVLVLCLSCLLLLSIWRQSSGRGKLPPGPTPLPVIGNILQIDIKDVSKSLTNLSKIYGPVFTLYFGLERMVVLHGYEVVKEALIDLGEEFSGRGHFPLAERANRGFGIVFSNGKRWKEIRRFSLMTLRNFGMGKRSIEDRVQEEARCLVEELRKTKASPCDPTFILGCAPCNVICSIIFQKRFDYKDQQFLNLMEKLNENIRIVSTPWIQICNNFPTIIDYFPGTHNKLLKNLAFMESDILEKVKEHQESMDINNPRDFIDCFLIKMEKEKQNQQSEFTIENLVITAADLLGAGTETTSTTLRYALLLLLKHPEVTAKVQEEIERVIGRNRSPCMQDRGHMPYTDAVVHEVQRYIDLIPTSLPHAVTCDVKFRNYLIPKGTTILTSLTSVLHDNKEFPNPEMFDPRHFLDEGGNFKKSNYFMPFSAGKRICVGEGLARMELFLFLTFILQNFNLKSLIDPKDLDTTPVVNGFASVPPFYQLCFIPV

The structures appear in SMILES notation. The source made the active and inactive calls. Bounds are passed on as bounds.

Voltage-dependent T-type calcium channel subunit alpha-1H, sequence (O95180 whole entry): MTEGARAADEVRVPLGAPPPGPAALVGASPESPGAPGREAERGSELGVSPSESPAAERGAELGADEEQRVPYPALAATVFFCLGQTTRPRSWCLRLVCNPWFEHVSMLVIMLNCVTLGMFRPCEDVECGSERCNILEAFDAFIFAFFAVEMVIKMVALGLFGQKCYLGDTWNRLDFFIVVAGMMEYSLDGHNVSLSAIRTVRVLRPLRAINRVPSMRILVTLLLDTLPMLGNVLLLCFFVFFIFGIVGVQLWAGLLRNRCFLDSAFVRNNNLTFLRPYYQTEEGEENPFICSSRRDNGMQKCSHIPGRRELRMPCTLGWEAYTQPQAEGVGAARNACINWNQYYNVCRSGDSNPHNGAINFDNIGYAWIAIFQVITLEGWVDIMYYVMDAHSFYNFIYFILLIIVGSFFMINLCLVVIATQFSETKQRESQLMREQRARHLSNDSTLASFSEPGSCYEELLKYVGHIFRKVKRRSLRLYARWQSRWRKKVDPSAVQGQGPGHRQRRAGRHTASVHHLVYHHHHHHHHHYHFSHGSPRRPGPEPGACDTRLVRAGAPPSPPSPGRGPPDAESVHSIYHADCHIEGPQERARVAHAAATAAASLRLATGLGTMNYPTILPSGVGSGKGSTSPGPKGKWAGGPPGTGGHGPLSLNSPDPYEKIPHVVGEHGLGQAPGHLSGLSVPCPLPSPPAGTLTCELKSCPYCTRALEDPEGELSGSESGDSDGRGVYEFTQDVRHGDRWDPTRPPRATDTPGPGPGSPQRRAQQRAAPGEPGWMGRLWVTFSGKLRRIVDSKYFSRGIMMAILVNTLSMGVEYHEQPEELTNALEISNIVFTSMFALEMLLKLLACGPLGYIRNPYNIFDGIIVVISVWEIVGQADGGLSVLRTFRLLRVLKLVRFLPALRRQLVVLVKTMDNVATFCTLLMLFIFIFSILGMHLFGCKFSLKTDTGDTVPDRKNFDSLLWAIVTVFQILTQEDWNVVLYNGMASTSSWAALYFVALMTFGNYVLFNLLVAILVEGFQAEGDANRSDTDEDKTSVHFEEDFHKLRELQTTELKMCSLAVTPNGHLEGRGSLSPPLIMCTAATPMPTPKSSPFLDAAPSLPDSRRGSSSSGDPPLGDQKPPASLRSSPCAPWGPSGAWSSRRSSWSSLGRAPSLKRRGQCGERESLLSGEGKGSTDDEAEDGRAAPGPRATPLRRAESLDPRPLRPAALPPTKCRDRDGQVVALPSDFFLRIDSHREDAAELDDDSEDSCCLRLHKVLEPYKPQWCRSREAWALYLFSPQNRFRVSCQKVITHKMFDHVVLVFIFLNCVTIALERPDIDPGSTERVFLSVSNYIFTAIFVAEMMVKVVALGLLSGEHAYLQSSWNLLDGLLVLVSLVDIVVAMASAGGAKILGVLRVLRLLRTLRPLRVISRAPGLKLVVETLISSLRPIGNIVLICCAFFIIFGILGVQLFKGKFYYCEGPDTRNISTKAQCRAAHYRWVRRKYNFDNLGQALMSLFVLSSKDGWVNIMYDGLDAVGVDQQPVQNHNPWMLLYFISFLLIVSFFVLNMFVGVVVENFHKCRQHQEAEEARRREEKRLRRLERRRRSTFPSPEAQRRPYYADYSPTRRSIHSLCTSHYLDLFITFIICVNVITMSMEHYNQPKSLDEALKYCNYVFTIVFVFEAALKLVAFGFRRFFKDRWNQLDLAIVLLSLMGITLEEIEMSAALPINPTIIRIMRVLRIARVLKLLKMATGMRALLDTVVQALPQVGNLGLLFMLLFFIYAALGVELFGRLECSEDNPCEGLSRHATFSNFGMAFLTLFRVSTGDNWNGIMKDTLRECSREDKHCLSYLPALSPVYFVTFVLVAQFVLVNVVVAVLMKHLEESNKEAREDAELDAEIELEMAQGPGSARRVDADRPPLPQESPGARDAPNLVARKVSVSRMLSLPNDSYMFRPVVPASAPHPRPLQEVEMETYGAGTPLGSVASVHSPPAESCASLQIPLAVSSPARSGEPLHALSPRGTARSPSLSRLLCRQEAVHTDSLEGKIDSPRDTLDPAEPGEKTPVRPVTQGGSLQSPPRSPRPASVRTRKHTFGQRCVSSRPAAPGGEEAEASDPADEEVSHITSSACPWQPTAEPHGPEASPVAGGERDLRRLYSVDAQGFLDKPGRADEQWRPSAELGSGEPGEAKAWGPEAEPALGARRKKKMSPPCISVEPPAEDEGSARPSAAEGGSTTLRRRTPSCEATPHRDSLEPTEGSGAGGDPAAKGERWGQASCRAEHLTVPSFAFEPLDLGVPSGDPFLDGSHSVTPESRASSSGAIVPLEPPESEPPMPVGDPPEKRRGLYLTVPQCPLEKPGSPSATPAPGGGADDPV

For the compound `Cc1cccc(C)c1NC(=O)C(c1ccc(Cl)cc1Cl)N1CCCCC1` (configuration not stated), in [1], the EC50 is 2.39 µM (active).
In the case of `CN1C(=O)c2cccc3c(S(=O)(=O)NCc4ccco4)ccc1c23`, the 50% inhibitory concentration (IC50) in data set [2] is listed as > 69.5 µM (not active).
In the case of `COc1ccc(/C=C/C(=O)c2cc(F)ccc2OC(=O)c2ccc(OC)c(OC)c2)cc1OC`, the IC50 in data set [3] was 5.27 µM (active).
As for `CCCCn1c(/C=N/Nc2nc3ccccc3[nH]2)nc2ccccc21`, the EC50 is 43.7 µM (active) in “cells [4]”, > 350 µM (not active) in “cells [5]”, 1.66 µM (active) in data set [6] and 3.74 µM (active) with Streptococcus. Besides, the AC50 in the data set on INS1 was 3.54 µM (active).
Regarding `O=C(O)c1ccccc1C(=O)NCC(O)c1ccccc1` (configuration not stated), the EC50 in the data set “cells [7]” is > 29.9 µM (inactive); in data set [9], 5.05 µM (active). The IC50 (in [8]; in the data set “cells [10]”) was > 29.9 µM (inactive) each time.
As for `O=C(Nc1ccc(F)cc1)Nc1ccc(Oc2ncnc3cc(Cl)ccc23)nc1`, the EC50 (in the data set “cells [7]”; in [9]) was > 29.9 µM (inactive) each time. Moreover, the IC50 was 0.373 µM (active) in data set [8] and > 29.9 µM (inactive) in the data set “cells [10]”.
Consider `CC(C)Oc1cc(NC(=O)C[S+]([O-])CC(=O)Nc2cccc(C(F)(F)F)c2)c(Cl)cc1Cl` (configuration not stated), for which, in data set [1], the half-maximal effective concentration (EC50) was 3.23 µM (active).
In the case of `C[C@]12CC[C@@H]3c4ccc(O)cc4CC[C@H]3[C@@H]1CC[C@@H]2OC(=O)CCC1CCCC1` [ESTRADIOL CYPIONATE], the IC50 in data set [11] and in data set [13] was > 10 µM (inactive) throughout. The CC50 in data set [12] was 30.6 µM (active).
Consider `O=S(=O)(NC1=NCCCCC1)c1ccc2sc(NS(=O)(=O)c3ccc4ccccc4c3)nc2c1`, for which the concentration for half-maximal inhibition (IC50) was 9.21 µM (active) in [3], 39.4 µM (active) on Large T antigen and 156 µM (active) in data set [14].
As to `CCCCc1c(-c2ccccc2OC)ncn1CCc1cccc(F)c1`, the EC50 in the data set “cells [7]” was > 29.9 µM (inactive); in data set [9], 2.73 µM (active). In addition, the IC50 in [8] was 4.33 µM (active); in “cells [10]” it was 15.3 µM (inactive).
In the case of `CCn1c(=O)cc(SCC(=O)N2CCC(C)CC2)c2ccccc21`, the EC50 in data set [15] is > 79.4 µM (inactive); in data set [16], > 79.4 µM (not active); in data set [17], > 79.4 µM (not active). The IC50 in data set [18] is > 80 µM (inactive).
For the compound `Cc1cc(C)cc(OCC(=O)Nc2ccc(N3CCCC3)cc2)c1`, the values for the IC50 (in data set [2]; at Estrogen receptor beta; on Coagulation factor XII) were 7.74 µM (active), 1.56 µM (active) and > 50 µM (inactive), respectively.
As to `COc1ccc(N(C)C(=O)c2ccc3nc(-c4ccccc4)c(-c4ccccc4)nc3c2)cc1`, the 50% effective concentration (EC50) in data set [1] was 3.17 µM (active). In [19], the CC50 is 12.8 µM (active).
In the case of `CC[C@@H]([C@H](C)O)n1ncn(-c2ccc(N3CCN(c4ccc(OC[C@@H]5CO[C@@](Cn6cncn6)(c6ccc(F)cc6F)C5)cc4)CC3)cc2)c1=O`, the IC50 in data set [11] and in [13] was > 10 µM (inactive) in each case.
Take `CCc1ccc2nc(Nc3nc(O)cc(COC)n3)nc(C)c2c1`: the IC50 in data set [18] was > 80 µM (inactive).
In the case of `CC1SC(NC(=O)c2ccncc2)=NC1=O` (configuration not stated), the EC50 in “cells [4]” and in the data set “cells [5]” was > 350 µM (not active) each time.
Take `NCCc1ccc(O)cc1` [TYRAMINE]: the values for the EC50 (in “cells [7]”; in data set [9]) were > 29.9 µM (inactive) and 0.178 µM (active), respectively. Also, the IC50 was 0.882 µM (active) in data set [8] and > 29.9 µM (inactive) in “cells [10]”. On Cytochrome P450 2C19, the AC50 result is on record as “inconclusive”.
For `CC(C)C(=O)Nc1ccc(NC(=O)c2ccc3c(c2)OCO3)cc1`, the IC50 in data set [18] was > 80 µM (inactive).
